Results from patent US10072017B2, “Compounds and methods for the treatment of cystic fibrosis” (Flatley Discovery Lab, LLC, priority 2015, dated 2018).

Biological target: T1, CFTR (Homo sapiens, UniProt P13569, DEL508-508)
T1 construct: Primary CF airway epithelial cells were obtained from the UNC Cystic Fibrosis Tissue Procurement and Cell Culture Core; host or cells: primary CF airway epithelial cells
Assay: Equivalent current assay in Primary CF airway epithelial cells (NAUC)
Type: cell-based
Conditions: 24 h, normalized to VX809 (3 μM) positive control; for Nauc @ 3 μM: 3 μM test compound; for Nauc @ 10 μM: 10 μM test compound
Procedure: Primary CF airway epithelial cells were obtained from the UNC Cystic Fibrosis Tissue Procurement and Cell Culture Core. The cells are grown at 37° C. in a Heracell 150i incubator using growth media (BEGM, Fischer). Cells were then transferred to differentiation media (ALI, UNC) for a minimum of 4 weeks on coated Costar snapwells. Two days before the Ussing assay the mucus on the apical surface of the cells was aspirated after incubating with 200 μL of differentiation Media for at least thirty (30) minutes. One day before the Ussing assay test compounds were added to the basolateral surface of the cells at various test concentrations dissolved in DMSO. Duplicate wells were prepared giving a n=3 or n=4 protocol.
Cells were treated for 24 hours with various combinations and concentrations of the test articles, reference standard (3 μM VX809, positive control). Compounds stock solutions were prepared in DMSO and diluted 1/1000 into ALI media to their final assay concentration. Cells were treated with combination solutions (2 mL of each dilution) and incubated at 37° C. for 24 h.
For the equivalent current assay, cells on four Transwell (24-well) plates were treated. Each Transwell plate was filled with 200 μl of HBS on the apical surface and 2 ml on the basolateral surface. Plates were placed horizontally in a heated mount at 37° C., and equilibrated for several minutes. Resting current was measured for 15 min and then blocked by the apical addition of 5 μM benzamil. After 20 min, 10 μM forskolin and 1 μM VX770 were added to both the apical and basolateral side to stimulate CFTR. An increase in chloride current is seen as an upward deflection of the trace. After another 30 min, CFTR-172 (a CFTR inhibitor, 20 μM) and/or bumetanide (20 uM) was added to block CFTR mediated chloride current.
The raw data, current vs. time for the Ussing chamber (sampling interval: 10 s) and voltage vs. time and resistance vs. time for the equivalent current assay (sampling interval: 5 minutes) were transferred to Excel (Microsoft Office Professional, version 14.0.7106.5003) for analysis. CFTR specific current was measured as the average amplitude of the increase in current elicited upon addition forskolin and ending upon addition of the CFTR channel specific blocker CFTR-172. This average is equivalent to the sum of the average forskolin activated and the average VX770-potentiated currents. The average current measured in vehicle (0.1% DMSO) treated cells, Iv, was subtracted from the current for the test article, ITA, or from the corrector reference standard VX809 (3 uM ISTD. For replicate measurements, the average vehicle subtracted response for the test article, was normalized to the average vehicle subtracted inhibitor response of the reference corrector VX809 (3 μM). INSC=(ITA−IV)(ave)/(ISTD−IV)(ave) (Equation 1)
A second endpoint, for the equivalent current assay, evaluated was NAUC, the normalized area under the curve (AUC) measuring the response after addition of forskolin and VX770 to the time point right before the addition of the CFTR inhibitor. The AUC is effectively the average response multiplied by the duration of the response. The AUC of the test article, AUCTA was then corrected by subtracting the average vehicle response, AUCV,ave over the same time range, and normalized as for the inhibitor-sensitive current to the difference of the corrector reference standard VX809 (3 μM VX809r,ave and the vehicle response: NAUCTA=[AUCTA−AUCV,ave]/[AUCVx809r,ave−AUCV,ave] (Equation 2).
The normalized value for DMSO is 0.0 and for VX-809 alone is 1.0. Combinations of compounds with VX-809 that give normalized values greater than 1.0 show activity in the combination assay. A value of 2 means the test compound doubles the effect to VX-809 alone.
Experiments were run with a minimum of n=4 replicates per concentration. […]

T1 sequence (P13569 with tags, fused parts or gaps DEL508-508): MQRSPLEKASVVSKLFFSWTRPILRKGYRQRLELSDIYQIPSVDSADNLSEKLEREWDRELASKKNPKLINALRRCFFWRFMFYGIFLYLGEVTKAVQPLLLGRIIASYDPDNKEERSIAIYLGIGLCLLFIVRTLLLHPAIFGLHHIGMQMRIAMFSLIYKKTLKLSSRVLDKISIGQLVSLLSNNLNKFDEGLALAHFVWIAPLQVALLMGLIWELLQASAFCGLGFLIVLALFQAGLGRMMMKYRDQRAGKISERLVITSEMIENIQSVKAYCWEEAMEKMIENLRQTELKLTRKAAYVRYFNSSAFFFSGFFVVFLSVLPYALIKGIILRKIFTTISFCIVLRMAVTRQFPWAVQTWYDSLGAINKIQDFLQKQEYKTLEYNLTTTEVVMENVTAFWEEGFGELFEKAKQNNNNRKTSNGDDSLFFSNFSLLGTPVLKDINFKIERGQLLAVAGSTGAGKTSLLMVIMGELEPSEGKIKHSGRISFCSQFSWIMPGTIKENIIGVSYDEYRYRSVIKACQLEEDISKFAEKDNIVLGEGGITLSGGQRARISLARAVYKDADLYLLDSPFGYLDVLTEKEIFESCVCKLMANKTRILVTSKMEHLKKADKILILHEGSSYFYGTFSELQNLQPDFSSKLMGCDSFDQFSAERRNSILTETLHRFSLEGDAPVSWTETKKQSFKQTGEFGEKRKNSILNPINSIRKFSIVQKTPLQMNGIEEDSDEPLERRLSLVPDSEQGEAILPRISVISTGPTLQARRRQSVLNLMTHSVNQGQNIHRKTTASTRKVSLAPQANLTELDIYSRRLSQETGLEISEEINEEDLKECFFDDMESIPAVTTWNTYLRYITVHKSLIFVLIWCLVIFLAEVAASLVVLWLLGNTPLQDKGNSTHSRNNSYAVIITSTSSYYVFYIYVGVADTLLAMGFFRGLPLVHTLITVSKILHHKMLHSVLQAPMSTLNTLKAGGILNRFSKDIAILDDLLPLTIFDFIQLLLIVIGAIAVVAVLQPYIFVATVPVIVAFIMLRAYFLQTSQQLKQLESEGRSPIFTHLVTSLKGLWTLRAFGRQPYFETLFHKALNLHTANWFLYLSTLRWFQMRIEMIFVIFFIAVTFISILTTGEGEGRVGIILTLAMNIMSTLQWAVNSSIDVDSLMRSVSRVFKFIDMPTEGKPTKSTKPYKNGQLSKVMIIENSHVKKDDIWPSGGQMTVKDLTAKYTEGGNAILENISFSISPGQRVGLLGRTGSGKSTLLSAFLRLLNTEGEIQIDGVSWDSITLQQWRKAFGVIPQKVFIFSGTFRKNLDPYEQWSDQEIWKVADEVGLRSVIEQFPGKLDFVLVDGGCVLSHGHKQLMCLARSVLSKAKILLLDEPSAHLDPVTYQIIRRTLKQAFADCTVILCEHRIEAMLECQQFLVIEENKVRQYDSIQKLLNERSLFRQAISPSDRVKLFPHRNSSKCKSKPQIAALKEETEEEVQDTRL

Structure (SMILES) | Nauc @ 3 μM | Nauc @ 10 μM
O=C1C2C3CC(F)(F)CN3C3(C(=O)Nc4c(Cl)cc(Cl)cc43)C2C(=O)N1c1cc(Cl)cc(Cl)c1 (stereo not shown) [Example 53] | ++ (NAUC “++” refers to an observed NAUC 170-140% of positive control) | ++ (NAUC “++” refers to an observed NAUC 170-140% of positive control)
COc1cc(Cl)cc(N2C(=O)C3C4CCCN4C4(C(=O)Nc5c(Cl)cc(Cl)cc54)C3C2=O)c1 (single isomer, unassigned) [Example 104] | + (NAUC “+” refers to an observed NAUC <140% of positive control) | ++ (NAUC “++” refers to an observed NAUC 170-140% of positive control)
C[C@]1(O)CC2C3C(=O)N(c4cc(Cl)cc(Cl)c4)C(=O)C3C3(C(=O)Nc4c(Cl)cc(Cl)cc43)N2C1 (stereo partly shown) [Example 171] | +++ (NAUC “+++” refers to an observed NAUC >170% of positive control) | +++ (NAUC “+++” refers to an observed NAUC >170% of positive control)
COc1cc(Cl)cc(N2C(=O)C3C4C[C@H](Cl)CN4C4(C(=O)Nc5c(Cl)cc(Cl)cc54)C3C2=O)c1 (single isomer, unassigned) [Example 111] | +++ (NAUC “+++” refers to an observed NAUC >170% of positive control) | +++ (NAUC “+++” refers to an observed NAUC >170% of positive control)
O=C1C2C3CC(=C(F)F)CN3C3(C(=O)Nc4c(Cl)cc(Cl)cc43)C2C(=O)N1c1cc(F)cc(Cl)c1 (stereo not shown) [Example 124] | + (NAUC “+” refers to an observed NAUC <140% of positive control) | ++ (NAUC “++” refers to an observed NAUC 170-140% of positive control)
O=C1C2C3CC(C(F)F)CN3C3(C(=O)Nc4c(Cl)cc(Cl)cc43)C2C(=O)N1c1cc(Cl)cc(Cl)c1 (stereo not shown) [Example 99] | +++ (NAUC “+++” refers to an observed NAUC >170% of positive control) | +++ (NAUC “+++” refers to an observed NAUC >170% of positive control)
COc1cccc(CC2NC3(C(=O)Nc4c(Cl)cc(Cl)cc43)C3C(=O)N(c4cc(Cl)cc(Cl)c4)C(=O)C23)c1 (stereo not shown) [Example 200] | ++ (NAUC “++” refers to an observed NAUC 170-140% of positive control) | + (NAUC “+” refers to an observed NAUC <140% of positive control)
O=C1C2C3CC4(CC4)CN3C3(C(=O)Nc4c(Cl)cc(Cl)cc43)C2C(=O)N1c1cc(Cl)cc(Cl)c1 (single isomer, unassigned) [Example 192] | + (NAUC “+” refers to an observed NAUC <140% of positive control) | ++ (NAUC “++” refers to an observed NAUC 170-140% of positive control)
CC1CC2C3C(=O)N(c4cc(Cl)cc(Cl)c4)C(=O)C3C3(C(=O)Nc4c(Cl)cc(Cl)cc43)N2C1 (single isomer, unassigned) [Example 72] | +++ (NAUC “+++” refers to an observed NAUC >170% of positive control) | + (NAUC “+” refers to an observed NAUC <140% of positive control)
CC(=O)Oc1c(Cl)cc(Cl)cc1N1C(=O)C2C3C[C@H](F)CN3C3(C(=O)Nc4c(Cl)cc(Cl)cc43)C2C1=O (stereo partly shown) [Example 92] | +++ (NAUC “+++” refers to an observed NAUC >170% of positive control) | + (NAUC “+” refers to an observed NAUC <140% of positive control)
Cc1ccccc1CC1NC2(C(=O)Nc3c(Cl)cc(Cl)cc32)C2C(=O)N(c3cc(Cl)cc(Cl)c3)C(=O)C12 (stereo not shown) [Example 199] | +++ (NAUC “+++” refers to an observed NAUC >170% of positive control) | ++ (NAUC “++” refers to an observed NAUC 170-140% of positive control)
O=C1C2C3CCCN3C3(C(=O)Nc4c(Cl)cc(Cl)cc43)C2C(=O)N1c1cc(C(F)(F)F)cc(C(F)(F)F)c1 (stereo not shown) [Example 26] | + (NAUC “+” refers to an observed NAUC <140% of positive control) | +++ (NAUC “+++” refers to an observed NAUC >170% of positive control)
O=C1[C@H]2[C@@H](C(=O)N1c1cc(Cl)cc(Cl)c1)[C@]1(C(=O)Nc3c(Cl)cc(Cl)cc31)N1CCC[C@@H]21 (single isomer, unassigned) [Example 13] | +++ (NAUC “+++” refers to an observed NAUC >170% of positive control) | +++ (NAUC “+++” refers to an observed NAUC >170% of positive control)
COc1c(Cl)cc(N2C(=O)C3C4CC5(CC5)CN4C4(C(=O)Nc5c(Cl)cc(Cl)cc54)C3C2=O)cc1Cl (stereo not shown) [Example 177] | ++ (NAUC “++” refers to an observed NAUC 170-140% of positive control) | +++ (NAUC “+++” refers to an observed NAUC >170% of positive control)
CC(=O)N[C@H]1CC2C3C(=O)N(c4cc(Cl)cc(Cl)c4)C(=O)C3C3(C(=O)Nc4c(Cl)cc(Cl)cc43)N2C1 (stereo partly shown) [Example 135] | +++ (NAUC “+++” refers to an observed NAUC >170% of positive control) | + (NAUC “+” refers to an observed NAUC <140% of positive control)
C[C@]1(O)CC2C3C(=O)N(c4cc(Cl)cc(Cl)n4)C(=O)C3C3(C(=O)Nc4c(Cl)cc(Cl)cc43)N2C1 (stereo partly shown) [Example 223] | + (NAUC “+” refers to an observed NAUC <140% of positive control) | +++ (NAUC “+++” refers to an observed NAUC >170% of positive control)
Cc1cccc(CC2NC3(C(=O)Nc4c(Cl)cc(Cl)cc43)C3C(=O)N(c4cc(Cl)cc(Cl)c4)C(=O)C23)n1 (stereo not shown) [Example 238] | + (NAUC “+” refers to an observed NAUC <140% of positive control) | ++ (NAUC “++” refers to an observed NAUC 170-140% of positive control)
O=C1C2C3CC(C(F)F)CN3C3(C(=O)Nc4c(Cl)cc(Cl)cc43)C2C(=O)N1c1cccc(C(F)(F)F)c1 (stereo not shown) [Example 134] | + (NAUC “+” refers to an observed NAUC <140% of positive control) | ++ (NAUC “++” refers to an observed NAUC 170-140% of positive control)
O=C1C2C3C[C@H](O)CN3C3(C(=O)Nc4c(Br)cc(Br)cc43)C2C(=O)N1c1cc(Cl)cc(Cl)c1 (stereo partly shown) [Example 40] | +++ (NAUC “+++” refers to an observed NAUC >170% of positive control) | +++ (NAUC “+++” refers to an observed NAUC >170% of positive control)
CC1(C)CC2C3C(=O)N(c4cc(Cl)cc(Cl)c4)C(=O)C3C3(C(=O)Nc4c(Cl)cc(Cl)cc43)N2C1 (single isomer, unassigned) [Example 120] | +++ (NAUC “+++” refers to an observed NAUC >170% of positive control) | + (NAUC “+” refers to an observed NAUC <140% of positive control)
O=C1C2C3CCCN3C3(C(=O)Nc4c(Cl)cc(Cl)cc43)C2C(=O)N1c1cc(C(F)(F)F)cc(C(F)(F)F)c1 (stereo not shown) [Example 25] | +++ (NAUC “+++” refers to an observed NAUC >170% of positive control) | +++ (NAUC “+++” refers to an observed NAUC >170% of positive control)
O=C1C2C3CC(F)(F)CN3C3(C(=O)Nc4c(Cl)cc(Cl)cc43)C2C(=O)N1c1cc(Cl)cc(Cl)c1 (single isomer, unassigned) [Example 180] | ++ (NAUC “++” refers to an observed NAUC 170-140% of positive control) | + (NAUC “+” refers to an observed NAUC <140% of positive control)
C[C@@]1(F)CC2C3C(=O)N(c4cc(Cl)cc(Cl)c4)C(=O)C3C3(C(=O)Nc4c(Cl)cc(Cl)cc43)N2C1 (single isomer, unassigned) [Example 161] | +++ (NAUC “+++” refers to an observed NAUC >170% of positive control) | +++ (NAUC “+++” refers to an observed NAUC >170% of positive control)
